Data set [1] is described as follows: Body weights and food consumption in diabetic db/db mice. As to conditions: for adverse effect on food intake or body weight (in words): Tables 9 and 11. It counts as in vivo. On the procedure: (§1) Genetically altered obese diabetic mice (designated C57BL/ks diabetic or db/db) were purchased from the Jackson Laboratory (Bar Harbor, Me., USA), and served as experimental animals. Male animals between the ages of 8-9 weeks were employed in the studies described here. Animals were housed (4 mice/cage) under standard laboratory conditions at 22° C. and 50% relative humidity, and were maintained on a diet of Purina rodent chow and water ad libitum. Prior to treatment, blood was collected from the tail vein of each animal. Mice that had plasma glucose levels between 350 and 600 mg/dL were used. Each treatment group consisted of eight mice that were distributed so that the mean glucose levels were equivalent in each group at the start of the study. Db/db mice received, orally by gavage: the experimental compound administered at 62.5, 125, or 250 mg/kg/day (unless otherwise noted), or metformin administered at […] for 1-3 days. Test compounds were delivered in a liquid vehicle containing 0.25% (w/v) carboxymethyl-cellulose, 1% (v/v) Tween […] (polyoxyethylene sorbitan monosterate), and up to 10% (v/v) dimethyl sulfoxide (DMSO) in a volume of 10 ml/kg. Blood was sampled from the tail vein at three hours, six, eight, twenty-four, and thirty hours post-administration (the first administration) of the particular compound in non-fasted conditions. Experiments 3-5 also sampled blood at fifty-four hours post-administration (the first administration) of the particular compound in non-fasted conditions. Blood samples were analyzed for plasma glucose levels. Individual body weights and mean food consumption (each cage) were also measured daily.

For data set [2], the system named is C57BL/ks diabetic (db/db) mice. Kind of data set: Glucose-lowering (plasma glucose) in diabetic db/db mice. It counts as in vivo. The conditions noted are these: for Change in Glucose (mg/dL) 6 H: 6 h after initial dose; for Change in Glucose (mg/dL) 30 H: 30 h after initial dose; for Change in Glucose (mg/dL) 54 H: 54 h after initial dose; for reduction in plasma glucose relative to vehicle (control) (in words): oral, dose level of 125 mg/kg, Tables 8 and 10. The procedure: as §1
The isolated test substances were prepared as described previously (vide supra). Metformin (1,1-dimethylbiguanide), carboxymethyl cellulose and Tween 60 were purchased from Sigma Chemical Co. (St. Louis, Mo., USA; catalog #'s D-5035, C-4888, and p-1629, respectively). Plasma glucose levels were determined colorimetrically using glucose oxidase (Sigma Chemical Co.; Sigma catalog #315). Significant differences between groups (comparing compound-treated to vehicle-treated) were evaluated using analysis of variance and Fisher's post-hoc test.
Vehicle, metformin (250 mg/kg) or enriched extract (1000 mg/kg) were given to db/db mice at 0(initial), 8, 24, 32, 48, 56, 72, 80, and 96 hours post initial dose.
Plasma glucose levels were measured at baseline, 3 (day 1), 51 hours (Day 3), and 99 hours (Day 5).

[3] abbreviates: 125 mg/kg, vehicle 6.0, Table 9.
Setting [4] is: 125 mg/kg, vehicle 39.8 ± 0.7, Table 9.
[5] abbreviates: 125 mg/kg, vehicle 39.7 ± 0.6, Table 9.
[6] abbreviates: 125 mg/kg q.d. oral at 0, 24, 48 h, vehicle 15.5, Table 8.
The mark [7] stands for this setting: 125 mg/kg q.d. oral at 0, 24, 48 h, vehicle 56.6, Table 8.
Setting [8] is: 125 mg/kg q.d. oral at 0, 24, 48 h, vehicle 88.6, Table 8.
Setting [9] is: Table 8, printed dose 250 mg/kg, thirty hours after initial dosing, value = size of decline.

Regarding `COc1cc(O)cc(CCc2ccccc2)c1CC=C(C)C` [Compound E], the “Food Intake (g/mouse) 0-48 h” value was found to be 5.7 g/mouse in data set [1] (setting [3]) and 5.7 g/mouse in data set [1] (125 mg/kg, vehicle 6.1, Table 11). Moreover, the “Body weight (g/mouse) (mean) 0 h” value stood at 39.6 ± 0.3 g/mouse in data set [1] (125 mg/kg, vehicle 39.4 ± 0.4, Table 11) and 39.5 ± 0.5 g/mouse in data set [1] (setting [4]). Moreover, the “Body weight (g/mouse) (mean) 48 hr” value was found to be 39.7 ± 0.6 g/mouse in data set [1] (setting [5]) and 40.2 ± 0.4 g/mouse in data set [1] (125 mg/kg, vehicle 40.1 ± 0.4, Table 11). Further, the “adverse effect on food intake or body weight (in words)” value in data set [1] (125 mg/kg) was “absence of any significantly adverse effect”. Further, the “Change in Glucose (mg/dL) 6 H” value is -2.1 mg/dL in data set [2] (setting [6]) and -53.8 mg/dL in data set [2] (125 mg/kg q.d. oral at 0, 24, 48 h, vehicle 20.0, Table 10). For the same molecule, the “Change in Glucose (mg/dL) 30 H” value in data set [2] (125 mg/kg q.d. oral at 0, 24, 48 h, vehicle 0.1, Table 10) was -109.9 mg/dL; in data set [2] (setting [7]), -47.0 mg/dL. For the same molecule, the “Change in Glucose (mg/dL) 54 H” value is -54.7 mg/dL in data set [2] (setting [8]) and -86.6 mg/dL in data set [2] (125 mg/kg q.d. oral at 0, 24, 48 h, vehicle −20.2, Table 10). For the same molecule, the “mean glucose levels declined from baseline values” in data set [2] (Table 8, 125 mg/kg, fifty-four hours after initial dosing, value = size of decline) stood at 54.7 mg/dL; in data set [2] (Table 10, 125 mg/kg, fifty-four hours after initial dosing, value = size of decline), 86.6 mg/dL. In addition, the “mean glucose levels declined from the baseline value” in data set [2] (setting [9]) was 47.0 mg/dL; in data set [2] (Table 10, 125 mg/kg, six hours after initial dosing, value = size of decline), 53.8 mg/dL; in data set [2] (Table 10, 125 mg/kg, thirty hours after initial dosing, value = size of decline), 109.9 mg/dL. Moreover, the “reduction in plasma glucose relative to vehicle (control) (in words)” value in data set [2] is on record as “statistically significant reduction”.

Take `COc1cc(O)cc(CCc2ccccc2)c1` [Compound G]: in data set [1] (setting [3]), the “Food Intake (g/mouse) 0-48 h” value is reported as 5.9 g/mouse. In addition, in data set [1] (setting [4]), the “Body weight (g/mouse) (mean) 0 h” value was 39.0 ± 1.1 g/mouse. Moreover, the “Body weight (g/mouse) (mean) 48 hr” value in data set [1] (setting [5]) is on record as 39.0 ± 1.1 g/mouse. In data set [1] (125 mg/kg), the “adverse effect on food intake or body weight (in words)” value is on record as “absence of any significantly adverse effect”. Also, the “Change in Glucose (mg/dL) 6 H” value in data set [2] (setting [6]) was determined as 35.0 mg/dL. Further, the “Change in Glucose (mg/dL) 30 H” value in data set [2] (setting [7]) was -12.2 mg/dL. Besides, in data set [2] (setting [8]), the “Change in Glucose (mg/dL) 54 H” value was 12.0 mg/dL. Also, the “mean glucose levels rose from the baseline values” in data set [2] (Table 8, 125 mg/kg, fifty-four hours after initial dosing, value = size of rise) came to 12.0 mg/dL. The “mean glucose levels declined from the baseline value” in data set [2] (setting [9]) amounted to 74.6 mg/dL. For the same molecule, in data set [2], the “reduction in plasma glucose relative to vehicle (control) (in words)” value was “statistically significant reduction”.

For the molecule `CN(C)C(=N)NC(=N)N` [Metformin, 1,1-dimethylbiguanide, reference compound], the “Food Intake (g/mouse) 0-48 h” value is on record as 5.4 g/mouse in data set [1] (250 mg/kg, vehicle 6.0, Table 9); 5.1 g/mouse in data set [1] (250 mg/kg, vehicle 6.3, Tables 5 and 7). Also, the “Body weight (g/mouse) (mean) 0 h” value in data set [1] (250 mg/kg, vehicle 39.2 ± 0.5, Tables 5 and 7) was determined as 37.3 ± 0.7 g/mouse; in data set [1] (250 mg/kg, vehicle 39.8 ± 0.7, Table 9), 40.6 ± 0.4 g/mouse. For the same molecule, the “Body weight (g/mouse) (mean) 48 hr” value in data set [1] (250 mg/kg, vehicle 39.5 ± 0.5, Tables 5 and 7) is on record as 37.2 ± 0.6 g/mouse; in data set [1] (250 mg/kg, vehicle 39.7 ± 0.6, Table 9), 40.5 ± 0.4 g/mouse. Besides, the “Change in Glucose (mg/dL) 6 H” value in data set [2] (250 mg/kg q.d. oral at 0, 24, 48 h, vehicle 35.9, Tables 4 and 6) was -180.4 mg/dL; in data set [2] (metformin 250 mg/kg q.d. oral, vehicle 15.5, Table 8), -113.6 mg/dL. In addition, the “Change in Glucose (mg/dL) 30 H” value in data set [2] (250 mg/kg q.d. oral at 0, 24, 48 h, vehicle 79.6, Tables 4 and 6) was -112.4 mg/dL; in data set [2] (metformin 250 mg/kg q.d. oral, vehicle 56.6, Table 8), -25.1 mg/dL. Also, the “Change in Glucose (mg/dL) 54 H” value in data set [2] (250 mg/kg q.d. oral at 0, 24, 48 h, vehicle 60.3, Tables 4 and 6) is -41.3 mg/dL; in data set [2] (metformin 250 mg/kg q.d. oral, vehicle 88.6, Table 8) it was 6.8 mg/dL. The molecule further registered a glucose levels rose in data set [2] (Table 8, metformin 250 mg/kg, fifty-four hours after the initial dose, value = size of rise) of 6.8 mg/dL. Also, the “lowered plasma glucose levels by” value in data set [2] (Table 8, metformin 250 mg/kg, six hours after the initial dose, value = size of decline) is “approximately 113.6 mg/dL”; in data set [2] (Table 8, metformin 250 mg/kg, thirty hours after the initial dose, value = size of decline), ~25.1 mg/dL. In addition, the “mean glucose levels declined from the baseline values” in data set [2] (Tables 4 and 6, 250 mg/kg, fifty-four hours after initial dosing, value = size of decline) was 41.3 mg/dL. Besides, in data set [2] (Tables 4 and 6, 250 mg/kg, six hours after initial dosing, value = size of decline), the “mean glucose levels declined (lowered) from the baseline value” was “approximately 180.4 mg/dL”. Also, the “mean glucose levels declined (lowered) from the baseline values” in data set [2] (Tables 4 and 6, 250 mg/kg, thirty hours after initial dosing, value = size of decline) is ~112.4 mg/dL. The “Day 1 glucose” value in data set [2] (metformin 250 mg/kg, same schedule as extracts, 3 h post initial dose, vehicle −80.9) was -180.5 mg/dL. Also, in data set [2] (metformin 250 mg/kg, same schedule as extracts, 51 h post initial dose, vehicle −77.1), the “Day 3 glucose” value was -207.5 mg/dL. Also, in data set [2] (metformin 250 mg/kg, same schedule as extracts, 99 h post initial dose, vehicle +102.1), the “Day 5 glucose” value is -86.4 mg/dL.
